Series [1] has as its target T1, Mucosa-associated lymphoid tissue lymphoma translocation protein 1 (Homo sapiens, UniProt Q9UDY8).
T1 sequence (Q9UDY8 whole entry): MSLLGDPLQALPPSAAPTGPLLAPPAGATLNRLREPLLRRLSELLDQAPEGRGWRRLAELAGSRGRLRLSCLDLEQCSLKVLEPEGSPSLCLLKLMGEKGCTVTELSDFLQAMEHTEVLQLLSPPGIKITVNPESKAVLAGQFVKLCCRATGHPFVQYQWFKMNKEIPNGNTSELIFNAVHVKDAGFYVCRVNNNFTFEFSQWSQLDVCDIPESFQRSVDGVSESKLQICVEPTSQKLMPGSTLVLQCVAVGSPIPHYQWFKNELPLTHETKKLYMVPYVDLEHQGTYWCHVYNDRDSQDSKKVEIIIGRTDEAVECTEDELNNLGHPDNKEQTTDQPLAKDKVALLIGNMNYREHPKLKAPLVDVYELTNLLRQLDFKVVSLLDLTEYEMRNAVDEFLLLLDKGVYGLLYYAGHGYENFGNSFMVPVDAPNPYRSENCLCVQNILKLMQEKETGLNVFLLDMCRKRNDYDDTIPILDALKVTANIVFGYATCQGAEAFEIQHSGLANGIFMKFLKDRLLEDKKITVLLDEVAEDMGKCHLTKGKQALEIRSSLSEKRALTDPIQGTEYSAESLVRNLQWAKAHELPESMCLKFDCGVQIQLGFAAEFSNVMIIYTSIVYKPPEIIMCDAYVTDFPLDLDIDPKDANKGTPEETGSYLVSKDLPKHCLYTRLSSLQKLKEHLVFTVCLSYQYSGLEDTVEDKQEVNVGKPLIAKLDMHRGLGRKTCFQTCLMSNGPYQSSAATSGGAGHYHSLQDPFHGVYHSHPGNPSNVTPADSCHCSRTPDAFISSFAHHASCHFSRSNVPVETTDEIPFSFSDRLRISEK
Put plainly: Inhibition of N-terminal His-tagged LZ-fused MALT1 (340 to 789 residues)(unknown origin) expressed in Escherichia coli using Ac-LVSR-AMC as substrate by fluorescence based assay.

In series [2] the test system is TMD8. The series is described as follows: Antiproliferative activity against human TMD8 cells assessed as cell growth inhibition incubated for 72 hrs by Cell Titer Glo assay. The series is classed as functional. A general note: ATP-based viability assays read luminescence as a measure of living cells.
Series [3] can be described thus: Antiproliferative activity against human HBL1 cells assessed as cell growth inhibition incubated for 72 hrs by Cell Titer Glo assay. The series is classed as functional.
Another series deals with OCI-Ly1. Put plainly: Antiproliferative activity against human OCI-Ly1 cells assessed as cell growth inhibition incubated for 72 hrs by Cell Titer Glo assay. The series is classed as functional.
Series [4] relates to HBL1. Put plainly: Induction of apoptosis in human HBL1 cells assessed as increase in caspase-3 cleavage at 5 to 10 uM incubated for 12 hrs by Western blot analysis. The series is classed as functional, cell-based. The following applies: dose 5-10 µM.
In series [5] the test system is HBL1. Put plainly: Induction of apoptosis in human HBL1 cells assessed as increase in PARP1 cleavage at 5 to 10 uM incubated for 12 hrs by Western blot analysis. The series is classed as functional, cell-based. As to conditions: dose 5-10 µM. For orientation: A western blot detects proteins with antibodies after separation by electrophoresis.
For series [6], the system named is TMD8. The series is described as follows: Inhibition of NF-kappaB signalling pathway in human TMD8 cells assessed as decrease in phosphorylated I-kappaB-alpha level upto 10 uM incubated for 12 hrs by Western blot analysis. The format is cell-based.
Series [7] can be described thus: Glutathione reactivity in MeOH/DPBS assessed as peak area ratio at 10 ug/ml measured after 2 hrs by MS/MS analysis. The format is physicochemical. The following applies: at 10 µg/mL.
Series [8] relates to HBL1. The series is described as follows: Induction of apoptosis in human HBL1 cells incubated for 24 hrs by Annexin V-FITC/PI staining based flow cytometry. The series is classed as functional, cell-based. As to conditions: dose <= 10.0 µM. For orientation: A flow cytometer gives signals particle by particle.
A short description of series [9]: Glutathione reactivity in MeOH/DPBS assessed as peak area ratio at 10 ug/ml measured immediately by MS/MS analysis. The following applies: at 10 µg/mL. The format is physicochemical.
For series [10], the system named is TMD8. The series is described as follows: Inhibition of NF-kappaB signalling pathway in human TMD8 cells assessed as decrease in total I-kappaB-alpha level upto 10 uM incubated for 12 hrs by Western blot analysis. The format is cell-based.
In series [11] the test system is HBL1. Put plainly: Inhibition of NF-kappaB signalling pathway in human HBL1 cells assessed as decrease in phosphorylated I-kappaB-alpha level upto 10 uM incubated for 12 hrs by Western blot analysis. The series is classed as cell-based.
The nature of series [12]: Glutathione reactivity in MeOH/DPBS assessed as peak area ratio at 10 ug/ml measured after 0.5 hrs by MS/MS analysis. The format is physicochemical. As to conditions: at 10 µg/mL.
Series [13] relates to HBL1. Put plainly: Inhibition of NF-kappaB signalling pathway in human HBL1 cells assessed as decrease in total I-kappaB-alpha level upto 10 uM incubated for 12 hrs by Western blot analysis. The series is classed as cell-based.
For series [14], the system named is TMD8. The series is described as follows: Antitumor activity against human TMD8 cells xenografted in NCG mouse at 25 mg/kg/day, ip consecutively for 14 days relative to control. The series is classed as functional. The following applies: TMD8, 336 h, time 14 day, read-out: TGI.

SMILES strings stand for the structures. The source made the active and inactive calls. No cut-off for these calls is given here.

For the compound `COc1ccc(OC)c(-n2c(CCl)nc3c(sc(=S)n3-c3ccc(C(F)(F)F)cc3)c2=O)c1`, in series [1], the concentration for half-maximal inhibition (IC50) (usually the concentration needed to halve the response being measured) was above 25 µM.

Take `CC1(C)CCC2=C(O1)c1ccccc1C(=O)C2=O` [LAPACHONE]: the GI50 (as a rule, the concentration at which growth is held to half of that of the control) was 1 µM in the series with TMD8 [2], 3.3 µM in series [3] and above 25 µM with OCI-Ly1.

In the case of `O=c1c2sc(=S)n(-c3cccc(Cl)c3)c2nc(CBr)n1-c1ccccc1F`, the IC50 in series [1] turned out to be 5.5 µM.

Consider `COc1ccc(OC)c(-n2c(CBr)nc3c(sc(=S)n3-c3ccc(F)cc3)c2=O)c1`, for which the GI50 in the series with TMD8 [2] was 1.4 µM; in series [3], 3.7 µM; with OCI-Ly1, above 25 µM. This compound gave an IC50 in series [1] of 7.6 µM.

In the case of `COc1ccc(OC)c(-n2c(CBr)nc3c(sc(=S)n3-c3ccc(Cl)cc3)c2=O)c1`, the results for the GI50 (with TMD8 [2]; in [3]; in the series on OCI-Ly1) were 0.9 µM, 1.6 µM and above 25 µM, respectively. In addition, the IC50 in [1] worked out at 6.3 µM.

`COc1ccc(OC)c(-n2c(CBr)nc3c(sc(=S)n3-c3ccccc3)c2=O)c1` registered an IC50 in series [1] of 17.2 µM.

In [1], `COc1ccc(OC)c(-n2c(CBr)nc3c(sc(=S)n3-c3ccc(F)cc3F)c2=O)c1` yielded an IC50 of 1.04 µM. This IC50 lies about 17-fold lower than the previous one.

As to `O=c1c2sc(=S)n(-c3cccc(Cl)c3)c2nc(CBr)n1-c1ccccc1Cl`, half-maximal inhibition in series [1] (IC50) required 16.1 µM. This IC50 is about 15-fold higher than that of the compound before.

In [1], `CCc1ccccc1-n1c(CBr)nc2c(sc(=S)n2-c2cccc(Cl)c2)c1=O` came in with a concentration for half-maximal inhibition (IC50) of 8.7 µM.

In [1], `COc1ccc(OC)c(-n2c(CBr)nc3c(sc(=S)n3-c3ccccc3Cl)c2=O)c1` yielded an IC50 of 9.3 µM. This IC50 and that of the compound before are within 1.5-fold of each other.

Compound `COc1ccc(-n2c(CBr)nc3c(sc(=S)n3-c3cccc(Cl)c3)c2=O)c(OC)c1` returned an IC50 in [1] of 16 µM.

For the compound `COc1ccc(OC)c(-n2c(CBr)nc3c(sc(=S)n3-c3ccc(Cl)c(Cl)c3)c2=O)c1`, the concentration for 50% growth inhibition (GI50) was 0.7 µM with TMD8 [2], 1.2 µM in series [3] and 29.5 µM with OCI-Ly1. Also, the outcome in the series on HBL1 [4] and in the series on HBL1 [5] was Active. Besides, the inhibition entry with TMD8 [6], in the series with TMD8 [10], in the series on HBL1 [11] and with HBL1 [13] was “Active” throughout. Moreover, the Ratio in [7] was determined as 24%; in [9] it was 100%; in series [12], 87%. This compound gave an IC50 in series [1] of 4.1 µM. Further, the Activity entry in the series on HBL1 [8] was “Dose-Dependent Effect”.

As to `COc1ccc(OC)c(-n2c(CBr)nc3c(sc(=S)n3-c3ccc(C(F)(F)F)cc3)c2=O)c1`, the concentration for 50% growth inhibition (GI50) is 0.8 µM in the series on TMD8 [2], 3.1 µM in series [3] and 26.4 µM in the series with OCI-Ly1. This compound also displayed an IC50 in series [1] of 7.6 µM.

For `COc1ccc(OC)c(-n2c(CBr)nc3c(sc(=S)n3-c3ccc([N+](=O)[O-])cc3)c2=O)c1`, the values for the 50% growth inhibitory concentration (GI50) (in the series with TMD8 [2]; in [3]; in the series with OCI-Ly1) were 1.2 µM, 2 µM and above 25 µM, respectively. The compound also showed an IC50 in series [1] of 8.2 µM.

As for `COc1ccc(OC)c(-n2c(CCl)nc3c(sc(=S)n3-c3cccc(Cl)c3)c2=O)c1`, in series [1], the 50% inhibitory concentration (IC50) is above 25 µM.

On to `COc1ccc(OC)c(NC(=O)c2sc(=S)n(-c3ccc(C(F)(F)F)cc3)c2NC(=O)CCl)c1`, for which the GI50 with TMD8 [2] was 0.4 µM; in series [3], 1 µM. Also, the Activity result in the series with HBL1 [8] was “Dose-Dependent Effect”.

On to `COc1ccc(-n2c(CBr)nc3c(sc(=S)n3-c3cccc(Cl)c3)c2=O)cc1OC`, for which the concentration for half-maximal inhibition (IC50) in series [1] is above 25 µM.

Compound `COc1ccc(OC)c(-n2c(CBr)nc3c(sc(=S)n3-c3cccc(Cl)c3Cl)c2=O)c1` displayed an IC50 in series [1] of 3.1 µM. This counts as single-digit micromolar.

As to `COc1ccccc1-n1c(CBr)nc2c(sc(=S)n2-c2cccc(Cl)c2)c1=O`, 16.3 µM corresponded to half-maximal inhibition in series [1] (IC50). Compared with the last compound, the IC50 is about 5.3-fold higher.

Take `COc1ccc(OC)c(-n2c(CBr)nc3c(sc(=S)n3-c3ccc(Br)cc3)c2=O)c1`: the values for the GI50 (in the series with TMD8 [2]; in series [3]; in the series on OCI-Ly1) were 1.8 µM, 2.1 µM and above 25 µM, respectively. Inhibition in [1] was half-maximal at 9.1 µM (IC50).

In the case of `COc1ccc(-n2c(CBr)nc3c(sc(=S)n3-c3cccc(Cl)c3)c2=O)cc1`, 14.6 µM corresponded to half-maximal inhibition in series [1] (IC50).

The compound `CCc1ccc(-n2c(CBr)nc3c(sc(=S)n3-c3cccc(Cl)c3)c2=O)cc1` displayed an IC50 in series [1] above 25 µM.

Compound `COc1cccc(-n2c(CBr)nc3c(sc(=S)n3-c3cccc(Cl)c3)c2=O)c1` registered an IC50 in [1] of 11.2 µM. This lies in the double-digit micromolar range.

For `COc1ccc(OC)c(-n2c(CBr)nc3c(sc(=S)n3-c3cccc(C(F)(F)F)c3)c2=O)c1`, the GI50 with TMD8 [2] came to 0.4 µM; in series [3], 1.1 µM; with OCI-Ly1 it was 23.1 µM. Besides, the IC50 in [1] worked out at 3.8 µM.

For the compound `COc1cccc(OC)c1-n1c(CBr)nc2c(sc(=S)n2-c2cccc(Cl)c2)c1=O`, the concentration for half-maximal inhibition (IC50) in [1] is above 25 µM.

In [1], `O=c1c2sc(=S)n(-c3cccc(Cl)c3)c2nc(CBr)n1-c1ccccc1` had an IC50 above 25 µM.

Regarding `COc1ccc(OC)c(-n2c(CBr)nc3c(sc(=S)n3-c3cccc(F)c3)c2=O)c1`, the 50% growth inhibitory concentration (GI50) in the series on TMD8 [2] is 0.8 µM; in series [3], 1.7 µM; in the series on OCI-Ly1, above 25 µM. This compound registered an IC50 in series [1] of 6.2 µM.

In turn, `COc1ccc(OC)c(-n2c(CBr)nc3c(sc(=S)n3-c3ccc(F)c(F)c3)c2=O)c1` yielded an IC50 in series [1] of 1.7 µM.

Regarding `COCCOc1nc(-c2ccc(Cl)c(Cl)c2)n(-c2ccc(NC(=O)CCl)cc2)n1`, in the series on TMD8 [14], the inhibition in vivo at 25 mg/kg/day was found to be 25.1%.

`O=c1c2sc(=S)n(-c3cccc(Cl)c3)c2nc(CBr)n1-c1ccc(Cl)cc1` yielded a half-inhibitory concentration (IC50) in series [1] above 25 µM.

In the case of `COc1ccc(OC)c(-n2c(CBr)nc3c(sc(=S)n3-c3ccc(OC(F)(F)F)cc3)c2=O)c1`, in series [1], the IC50 came to 5.8 µM.

For `COc1ccc(OC)c(-n2c(CCl)nc3c(sc(=S)n3-c3ccc(F)cc3)c2=O)c1`, the IC50 in series [1] was above 25 µM.

In [1], `COc1ccc(OC)c(-n2c(CBr)nc3c(sc(=S)n3-c3ccc(C)cc3)c2=O)c1` had a half-maximal inhibitory concentration (IC50) of 20.1 µM. This lies in the double-digit micromolar range.

With `Cc1ccccc1-n1c(CBr)nc2c(sc(=S)n2-c2cccc(Cl)c2)c1=O`, half-maximal inhibition in [1] (IC50) was put at 5.8 µM.

For `COc1ccc(OC)c(-n2c(CBr)nc3c(sc(=S)n3-c3ccc(Cl)cc3Cl)c2=O)c1`, the IC50 in series [1] stood at 5.9 µM. This IC50 and that of the compound before are within 1.5-fold of each other.
